System: oligodendrocyte precursor cells (OPCs)
Experiment: Growth of OPCs on astrocyte-secreted extracellular matrix
Format: cell-based, mouse
Conditions: OPCs on inhibitory astrocyte matrix; significance class
Description: The process of remyelination requires oligodendrocyte lineage cells to undergo process outgrowth prior to their expression of mature myelin proteins for repair. Thus, process outgrowth in culture by cells of the oligodendrocyte lineage has been used as one surrogate for myelinating potential in vivo [Keough, M. B.; Rogers, J. A.; Zhang, P.; Jensen, S. K.; Stephenson, E. L.; Chen, T.; Hurlbert, M. G.; Lau, L. W.; Rawji, K. S.; Plemel, J. R. et al. An inhibitor of chondroitin sulfate proteoglycan synthesis promotes central nervous system remyelination. Nat. Commun. 2016, 7, 11312], since an oligodendrocyte needs to elaborate multiple protrusions emanating in several directions to contact many axons, and where these processes then compact around axons to form myelin segments. The presence of CSPGs in culture impairs the process outgrowth of OPCs, and this has been linked to reduced remyelination capacity in vivo [Keough, M. B.; Rogers, J. A.; Zhang, P.; Jensen, S. K.; Stephenson, E. L.; Chen, T.; Hurlbert, M. G.; Lau, L. W.; Rawji, K. S.; Plemel, J. R. et al. An inhibitor of chondroitin sulfate proteoglycan synthesis promotes central nervous system remyelination. Nat. Commun. 2016, 7, 11312]. It was reported previously that astrocytes in culture produce a plate-bound matrix abundant in CSPGs, that is left behind once astrocytes are removed from the plate, and this CSPG-containing matrix inhibits the outgrowth of plated OPCs [Keough, M. B. et al. An inhibitor of chondroitin sulfate proteoglycan synthesis promotes central nervous system remyelination. Nature communications 7, 11312 (2016)] (FIG. 7a). Thus, astrocytes were treated with test compounds for 48 hours and they were then removed from the cell culture plate leaving only their secreted ECM behind (FIG. 7a). When OPCs were plated on the astrocyte matrix, the extent of their process outgrowth over […] of observation was inhibited (FIG. 7b). […] OPCs growing in the absence of astrocyte ECM can reach a mean outgrowth around 300 μm (FIG. 7b,c). […] These compounds were: Ac-4,4-diF-GlcNAc 16 (Ac-4,4-diF-GlcNAc), fluorosamine 3 and its O1-deacetylated analog 10 (Ac-4-F-GlcNAcOH), anomeric O-propanoate 7, anomeric O-butanoate 8 (Ac-4-F-GlcNAcOBu), and the 4-fluorinated GalNAc derivative 13 (Ac-4-F-GalNAc) (FIG. 7c).
In brief, cortices from postnatal days 1-3 mouse brains were dissociated with papain digestion and then plated as a mixed culture for 7 days in a 37° C. incubator at 8.5% CO2 whereupon OPCs and microglia tended to be loosely attached on top of a monolayer of astrocytes; the OPCs and microglia were then shaken off when placed on an orbital shaker at 220 r.p.m. at 37° C. and 5% CO2 overnight. The media containing microglia and OPCs were collected and added to a 100 mm tissue culture dish and left at 37° C. and 5% CO2 for 30 min, to allow preferential adhesion of microglia. The media were collected again, now containing OPCs, and used as the OPC-enriched isolates for experiments. For the remaining adhered cells, largely astrocytes, these were removed with 0.25% trypsin and after centrifugation and washing, these astrocytes were plated at a density of 1.0×10^5 cells in flat bottom 96-well plates coated with 10 μg/ml poly-L-lysine. Cells were grown for 7 days at 37° C. and 5% CO2 in MGM and daily media changes. Astrocytes were carefully removed with EDTA treatment (0.2 g EDTA (Na4) per liter PBS, 30 minutes at 37° C. and 5% CO2) and mechanical dislodgement with a micropipetter. The remaining ECM left behind was covered with PBS at 4° C. until OPCs were seeded. Enriched OPCs from mixed glial cultures were seeded at a density of 5-10×10^4 cells per well in OPC media and grown at 37° C. and 8.5% CO2 for 18-24 h and then were fixed with 4% ice-cold paraformaldehyde at 4° C. for 10 min, rinsed with PBS, and stored at 4° C. until immunocytochemistry. […]

| SMILES | Enhance OPC outgrowth |
| --- | --- |
| CC(=O)NC1C(OC(C)=O)OC(COC(C)=O)[C@@H](F)C1OC(C)=O (stereo partly drawn) [Compound 3, reference compound] | ** (**p < 0.01) |
| CC(=O)N[C@H]1[C@H](OC(C)=O)O[C@H](COC(C)=O)[C@@H](OC(C)=O)[C@@H]1OC(C)=O [Compound 1, reference compound] | n.s. |
| CCCC(=O)OC[C@H]1OC(O)[C@H](NC(C)=O)[C@@H](OC(=O)CCC)[C@@H]1F (stereo partly drawn) [Compound 12, 2-Acetamido-3,6-di-O-butanoyl-2,4-dideoxy-4-fluoro-α/β-3-D-glucopyranose] | n.s. |

Same assay, conditions: astrocytes treated 48 hours, then removed; OPCs plated on matrix

| SMILES | mean process outgrowth of OPCs on astrocyte ECM |
| --- | --- |
| CC(=O)NC1C(OC(C)=O)OC(COC(C)=O)C(F)(F)[C@@H]1OC(C)=O (mixture of isomers) [Compound 16, 2-Acetamido-1,3,6-tri-O-acetyl-2,4-dideoxy-4,4-difluoro-α/β-D-xylo-hexopyranose] | effective at improving mean outgrowth of OPCs |
| CCCC(=O)OC1OC(COC(C)=O)[C@@H](F)[C@H](OC(C)=O)C1NC(C)=O (mixture of isomers) [Compound 8, 2-Acetamido-3,6-di-O-acetyl-1-O-butanoyl-2,4-dideoxy-4-fluoro-α/β-D-glucopyranose] | effective at improving mean outgrowth of OPCs |
| CC(=O)NC1C(OC(C)=O)OC(COC(C)=O)[C@H](F)[C@@H]1OC(C)=O (mixture of isomers) [Compound 13, 2-Acetamido-1,3,6-tri-O-acetyl-2,4-dideoxy-4-fluoro-α/β-D-galactopyranose] | effective at improving mean outgrowth of OPCs |
| CC(=O)NC1C(OC(C)=O)OC(COC(C)=O)[C@@H](F)C1OC(C)=O (stereo partly drawn) [Compound 3, reference compound] | effective at improving mean outgrowth of OPCs |
| CCC(=O)OC1OC(COC(C)=O)[C@@H](F)[C@H](OC(C)=O)C1NC(C)=O (stereo partly drawn) [Compound 7, 2-Acetamido-3,6-di-O-acetyl-2,4-dideoxy-4-fluoro-1-O-propanoyl-α/β-D-glucopyranose] | effective at improving mean outgrowth of OPCs |
| CC(=O)NC1C(O)OC(COC(C)=O)[C@@H](F)[C@@H]1OC(C)=O (mixture of isomers) [Compound 10] | effective at improving mean outgrowth of OPCs |

From patent US12600740B2, “Fluorinated N-acetyl glucosamine analogs and xylose derivatives” (UTI Limited Partnership, priority 2018, dated 2026)
